15 molecules from ChEMBL document CHEMBL3232942, “Benzophenone C-glucosides and gallotannins from mango tree stem bark with broad-spectrum anti-viral activity” (Bioorg Med Chem, 2014) can be followed below.

Active and inactive are the calls of the source. The rule behind the calls is not given here.

In assay [1] the target is Genome polyprotein (Coxsackievirus B3 (strain Nancy)) (UniProt P03313). Put plainly: Inhibition of His-6-tagged Coxsackievirus B3 3C protease expressed in Escherichia coli BL21(DE3) using Asp-Glu-EDANS-(5-((2-aminoethyl)amino)naphthalene-1-sulfonic acid)-MSAIFQGPISK-DABCYL (4-((4-(dimethylamino)phenyl)azo)benzoic acid) as peptide substrate at 100 uM by fluorescence-based […] assay.

The target in the next assay is Neuraminidase (Influenza A virus, UniProt Q194T1). The assay is described as follows: Inhibition of Influenza A virus (A/RI/5+/1957(H2N2)) recombinant neuraminidase using MUNANA as substrate after 30 mins.
For a further assay, the system named is HeLa. Put plainly: Cytotoxicity against human HeLa cells assessed as cell viability after 48 hrs by MTT assay. The assay is classed as cell-based. For orientation: Tetrazolium assays rely on reduction of a dye to a coloured formazan, in cell work by metabolically active cells.
In the next assay the target is Genome polyprotein (Coxsackievirus B3 (strain Nancy), UniProt P03313). The assay is described as follows: Inhibition of His-6-tagged Coxsackievirus B3 3C protease expressed in Escherichia coli BL21(DE3) using Asp-Glu-EDANS-(5-((2-aminoethyl)amino)naphthalene-1-sulfonic acid)-MSAIFQGPISK-DABCYL (4-((4-(dimethylamino)phenyl)azo)benzoic acid) as peptide substrate by fluorescence-based […] assay.

The next assay relates to HepG2. The assay is described as follows: Cytotoxicity against human HepG2 cells assessed as cell viability after 48 hrs by MTT assay. The assay is classed as cell-based. To be noted: HepG2, 48 h.

In the case of `O=C(O[C@@H]1O[C@H](CO)[C@@H](O)[C@H](O)[C@H]1O)c1cc(O)c(O)c(O)c1`, the inhibition (commonly the percentage by which the read-out fell short of the control) in assay [1] is 23.6%.

As for `O=C(OC(=O)c1ccc(O)c(O)c1)c1ccc(O)c(O)c1`, in assay [1], the inhibition result was “inactive”.

For `COc1cc(O)c(C(=O)c2ccc(O)cc2)c(O[C@@H]2O[C@H](CO)[C@@H](O)[C@H](O)[C@H]2O)c1`, the inhibition entry in assay [1] was “inactive”.

`O=c1c2cc(O)c(O)cc2oc2cc(O)c([C@@H]3O[C@H](CO)[C@@H](O)[C@H](O)[C@H]3O)c(O)c12`: the inhibition in assay [1] came to 21.4%.

`O=c1c2cc(O)c(O)cc2oc2c(-c3c(O)c([C@@H]4O[C@H](CO)[C@@H](O)[C@H](O)[C@H]4O)c(O)c4c(=O)c5cc(O)c(O)cc5oc34)c(O)c([C@@H]3O[C@H](CO)[C@@H](O)[C@H](O)[C@H]3O)c(O)c12` came in with an inhibition in assay [1] of 46.1%.

For the molecule `COc1cc(O)c(C(=O)c2ccc(O)cc2)c(O)c1[C@@H]1O[C@H](CO)[C@@H](O)[C@H](O)[C@H]1OC(=O)c1ccc(O)cc1`, the inhibition in assay [1] was determined as 27.2%.

As for `COc1cc(O)c(C(=O)c2ccc(O)cc2)c(O)c1[C@@H]1O[C@H](CO)[C@@H](O)[C@H](O)[C@H]1OC(=O)c1cc(O)c(O)c(O)c1`, the inhibition in assay [1] amounted to 53.8%.

Turning to `CO[C@@H]([C@@H]1OC(C(=O)O)=C[C@H](NC(=N)N)[C@H]1NC(C)=O)[C@H](O)CO`, at Neuraminidase, the half-inhibitory concentration (IC50) – broadly, the concentration that gives 50% inhibition – was 3.1 µM.

For `CCOC(=O)C1=C[C@@H](OC(CC)CC)[C@H](NC(C)=O)[C@@H](N)C1` [OSELTAMIVIR PHOSPHATE], the half-maximal inhibitory concentration (IC50) at Neuraminidase worked out at 0.8 µM.

As for `O=C(O[C@@H]1C[C@](O)(C(=O)O)C[C@@H](O)[C@H]1O)c1cc(O)c(O)c(O)c1`, the inhibition in assay [1] was 29.8%.

Molecule `O=C(OC[C@H]1O[C@@H](O)[C@H](OC(=O)c2cc(O)c(O)c(O)c2)[C@@H](OC(=O)c2cc(O)c(O)c(O)c2)[C@@H]1OC(=O)c1cc(O)c(O)c(O)c1)c1cc(O)c(O)c(O)c1` had an inhibition in assay [1] of 100%. Further, the IC50 stood at 9.2 µM at Neuraminidase, 240 µM in the assay with HeLa, 2000 nM on Genome polyprotein and 151 µM in the assay with HepG2.

`COc1cc(O)c(C(=O)c2ccc(O)cc2)c(O)c1[C@@H]1O[C@H](CO)[C@@H](O)[C@H](O)[C@H]1O` registered an inhibition in assay [1] of 17.5%.

Regarding `O=C(OC[C@H]1O[C@@H](OC(=O)c2cc(O)c(O)c(O)c2)[C@H](OC(=O)c2cc(O)c(O)c(O)c2)[C@@H](OC(=O)c2cc(O)c(O)c(O)c2)[C@@H]1OC(=O)c1cc(O)c(O)c(O)c1)c1cc(O)c(O)c(O)c1` [PENTAGALLOYL GLUCOSE], the inhibition in assay [1] was 100%. The IC50 at Neuraminidase was found to be 11.9 µM; with HeLa it was 356 µM; against Genome polyprotein, 1100 nM; with HepG2 it was 92.4 µM.

Regarding `COc1cc2oc3cc(O)c(O)cc3c(=O)c2c(O)c1[C@@H]1O[C@H](CO)[C@@H](O)[C@H](O)[C@H]1O`, the inhibition in assay [1] stood at 13.3%.

Consider `O=C(O)c1cc(O)c(O)c(O)c1`, for which, in assay [1], the inhibition entry is “inactive”.
